For five compounds, IC50 and viability, T/C results are on record in PubChem BioAssay AID1845219 (Molecular Pharmacology Branch, DTP, NCI, 2023).

Where “and” joins values, the source holds several entries; their conditions need not be identical. Equal values may be shown once. Bounds are passed on as bounds.

For this assay, the system named is SYO-1 tumor spheroids, viability % test/control. Description: Anticancer human tumor SYO-1 cell line growth inhibition.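 On all read-outs here: spheroids exposed to agents for 7 days before viability read.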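 On viability, T/C: 100% = DMSO vehicle control.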 The note with it: spheroids with HUVEC and MSC; for viability, T/C: stronger effect = lower value. The method in brief: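 Single agents and combinations were tested on spheroids built from tumor cells plus HUVEC and hMSC, at half-log dilutions starting at or near clinical Cmax, else 10 microM; final DMSO 0.25% (v/v).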

By IC50 is commonly meant the concentration needed to halve the response being measured. Broadly, the viability, T/C is the ratio of treated to control. With `COc1ccc([C@@H](O)c2cc(-c3ncnc4cc(N5CCOCC5)ccc34)c(F)cc2Cl)nn1` + Cn1nnc2c(C(N)=O)ncn2c1=O, the IC50 (curve of first compound, second compound 1 µM) worked out at 4.95 µM; the half-maximal inhibitory concentration (IC50) (curve of first compound, second compound 3.16 µM) was 4.59 µM; the half-inhibitory concentration (IC50) (curve of first compound, second compound 10 µM) was 4.93 µM; the IC50 (curve of first compound, second compound 31.6 µM) came out at 4.12 µM; the IC50 (curve of first compound, second compound 100 µM) was 1.97 µM. Besides, the viability, T/C (second compound 1 µM, first compound 0.0316 µM) was 107%; the viability, T/C (second compound 1 µM, first compound 0.1 µM) was 112%; the viability, T/C (second compound 1 µM, first compound 0.316 µM) was 112%; the viability, T/C (second compound 1 µM, first compound 1 µM) is 107%; the viability, T/C (second compound 1 µM, first compound 3.16 µM) is 77.3%; the viability, T/C (second compound 1 µM, first compound 10 µM) was 7.18%. Moreover, the viability, T/C by setting is: (second compound 3.16 µM, first compound 0.0316 µM) 101%; (second compound 3.16 µM, first compound 0.1 µM) 106%; (second compound 3.16 µM, first compound 0.316 µM) 108%; (second compound 3.16 µM, first compound 1 µM) 105%; (second compound 3.16 µM, first compound 3.16 µM) 68.3%; (second compound 3.16 µM, first compound 10 µM) 11.9%. Further, the viability, T/C is 108% (second compound 10 µM, first compound 0.0316 µM); 108% (second compound 10 µM, first compound 0.1 µM); 110% (second compound 10 µM, first compound 0.316 µM); 107% (second compound 10 µM, first compound 1 µM); 74.6% (second compound 10 µM, first compound 3.16 µM); 10.7% (second compound 10 µM, first compound 10 µM). The viability, T/C reads like this: (second compound 31.6 µM, first compound 0.0316 µM) 116%; (second compound 31.6 µM, first compound 0.1 µM) 110%; (second compound 31.6 µM, first compound 0.316 µM) 111%; (second compound 31.6 µM, first compound 1 µM) 109%; (second compound 31.6 µM, first compound 3.16 µM) 59.4%; (second compound 31.6 µM, first compound 10 µM) 18.4%. Moreover, the viability, T/C was 113% (second compound 100 µM, first compound 0.0316 µM); 116% (second compound 100 µM, first compound 0.1 µM); 107% (second compound 100 µM, first compound 0.316 µM); 80.2% (second compound 100 µM, first compound 1 µM); 29% (second compound 100 µM, first compound 3.16 µM); 2.71% (second compound 100 µM, first compound 10 µM).
For the compound `COc1cc2c(cc1O)CCNC21CSC2c3c(OC(C)=O)c(C)c4c(c3C(COC1=O)N1C(O)C3Cc5cc(C)c(OC)c(O)c5C(C21)N3C)OCO4` (centres undefined), the viability, T/C is 97.6% [middle of 10 runs] (compound 30 pM), 14.7% [middle of 10 runs] (compound 0.0003 µM), 1.05% [middle of 10 runs] (compound 0.000949 µM) and 0.12% [middle of 7 runs] (compound 0.003 µM). Also, the IC50 (compound alone, run of 12/12/2019) is 0.179 nM [middle of 9 runs].
On to `COc1cc(C)[nH]c(=O)c1CN1CCc2c(Cl)cc(C(OC)C3COC3)c(Cl)c2C1=O` (centres undefined), for which the viability, T/C reads like this: (compound 0.0316 µM) 114% and 106% (2×); (compound 0.1 µM) 110% and 115% and 112%; (compound 0.316 µM) 95.1% and 101% and 106%; (compound 1 µM) 78.1% and 82.5% and 90.5%; (compound 3.16 µM) 67.7% and 80% and 82.7%; (compound 10 µM) 59.9% and 73.2% and 75.6%. Moreover, the IC50 (curve of compound) is more than 10 µM.
Consider `CC(C)n1c(=O)n(C)c2cnc3cc(F)c(-c4ccc(OCCCN5CCCCC5)nc4)cc3c21`, for which the viability, T/C (compound 0.0316 µM) is 105% and 101% and 96.7%; the viability, T/C (compound 0.1 µM) is 103% and 101% and 98.9%; the viability, T/C (compound 0.316 µM) was 84.4% and 102% and 93.8%; the viability, T/C (compound 1 µM) was 103% and 102% and 104%; the viability, T/C (compound 3.16 µM) is 107% and 103% and 104%; the viability, T/C (compound 10 µM) was 64.1% and 48% and 48.3%. The IC50 (curve of compound) is > 10 µM and 9.6 µM and 9.62 µM.
Take `CC(C)n1c(=O)n(C)c2cnc3cc(F)c(-c4ccc(OCCCN5CCCCC5)nc4)cc3c21` + COc1cc2c(cc1O)CCNC21CSC2c3c(OC(C)=O)c(C)c4c(c3C(COC1=O)N1C(O)C3Cc5cc(C)c(OC)c(O)c5C(C21)N3C)OCO4: the IC50 (curve of first compound, second compound 30 pM) was found to be 7.38 µM; the IC50 (curve of first compound, second compound 94.9 pM) was less than 0.0316 µM; the IC50 (curve of first compound, second compound 0.0003 µM) was less than 0.0316 µM; the IC50 (curve of first compound, second compound 0.000949 µM) was less than 0.0316 µM; the IC50 (curve of first compound, second compound 0.003 µM) was less than 0.0316 µM. Besides, the viability, T/C is 99.7% (second compound 30 pM, first compound 0.0316 µM); 97.7% (second compound 30 pM, first compound 0.1 µM); 98% (second compound 30 pM, first compound 0.316 µM); 99.4% (second compound 30 pM, first compound 1 µM); 89.7% (second compound 30 pM, first compound 3.16 µM); 35.5% (second compound 30 pM, first compound 10 µM). Besides, the viability, T/C (second compound 94.9 pM, first compound 0.0316 µM) was 37.6%; the viability, T/C (second compound 94.9 pM, first compound 0.1 µM) is 33.4%; the viability, T/C (second compound 94.9 pM, first compound 0.316 µM) is 43.2%; the viability, T/C (second compound 94.9 pM, first compound 1 µM) is 52.4%; the viability, T/C (second compound 94.9 pM, first compound 3.16 µM) was 50%; the viability, T/C (second compound 94.9 pM, first compound 10 µM) was 21.6%. Further, the viability, T/C runs as follows: (second compound 0.0003 µM, first compound 0.0316 µM) 2.89%; (second compound 0.0003 µM, first compound 0.1 µM) 2.78%; (second compound 0.0003 µM, first compound 0.316 µM) 3.15%; (second compound 0.0003 µM, first compound 1 µM) 3.23%; (second compound 0.0003 µM, first compound 3.16 µM) 2.46%; (second compound 0.0003 µM, first compound 10 µM) 0.62%. Moreover, the viability, T/C reads like this: (second compound 0.000949 µM, first compound 0.0316 µM) 0.98%; (second compound 0.000949 µM, first compound 0.1 µM) 1.01%; (second compound 0.000949 µM, first compound 0.316 µM) 0.98%; (second compound 0.000949 µM, first compound 1 µM) 1.04%; (second compound 0.000949 µM, first compound 3.16 µM) 0.96%; (second compound 0.000949 µM, first compound 10 µM) 0.32%. Also, the viability, T/C (second compound 0.003 µM, first compound 0.0316 µM) is 0.12%; the viability, T/C (second compound 0.003 µM, first compound 0.1 µM) is 0.12%; the viability, T/C (second compound 0.003 µM, first compound 0.316 µM) was 0.12%; the viability, T/C (second compound 0.003 µM, first compound 1 µM) was 0.13%; the viability, T/C (second compound 0.003 µM, first compound 3.16 µM) was 0.13%; the viability, T/C (second compound 0.003 µM, first compound 10 µM) is 0.22%.
